Numbers after ± are expanded uncertainties.
Columns and labels:
[1] = for Normal melting temperature: DTA
[2] = Molar enthalpy of transition or fusion; conditions: DSC

SMILES | Normal melting temperature ([1]; Crystal) [°C] | Molar enthalpy of transition or fusion ([2]; Crystal) [kcal/mol] | Normal melting temperature ([1]; Crystal 1) [°C] | Triple point temperature ([1]; Crystal 2, DSC) [K] | Molar enthalpy of transition or fusion ([2]; Crystal 1) [kcal/mol] | Molar enthalpy of transition or fusion ([2]; Crystal 2) [kcal/mol]
CCCCCCCCCCCCCCCCCC(=O)O [octadecanoic acid] | 70.60 ± 0.4 | 15.1 ± 0.741 |  |  |  | 
CCCCCCCCCCCCCCCC(=O)O [hexadecanoic acid] | 63.10 ± 0.4 | 12.9 ± 0.645 |  |  |  | 

Next, values leading:

Normal melting temperature ([1]; Crystal) [°C] | Molar enthalpy of transition or fusion ([2]; Crystal) [kcal/mol] | Normal melting temperature ([1]; Crystal 1) [°C] | Triple point temperature ([1]; Crystal 2, DSC) [K] | Molar enthalpy of transition or fusion ([2]; Crystal 1) [kcal/mol] | Molar enthalpy of transition or fusion ([2]; Crystal 2) [kcal/mol] | SMILES
-5.40 ± 0.4 | 7.46 ± 0.382 |  |  |  |  | CCCCC/C=C\C/C=C\CCCCCCCC(=O)O [(Z,Z)-9,12-octadecadienoic acid]
-10.90 ± 0.4 | 6.99 ± 0.359 |  |  |  |  | CC/C=C\C/C=C\C/C=C\CCCCCCCC(=O)O [all-cis-9,12,15-octadecatrienoic acid]
 |  | 13.70 ± 0.4 | 268.95 ± 0.8 | 8.99 ± 0.454 | 1.87 ± 0.1 | CCCCCCCC/C=C\CCCCCCCC(=O)O [(Z)-9-octadecenoic acid]
